Results reported in patent US7816096B2, “Assay solution compositions and methods for GPCR arrays” (priority 2003, dated 2010).
Values belong to the molecule of their own block, whether it stands above or below them.

What was measured:
NTR1 = NTR1 (Rattus norvegicus, UniProt P20789); settings: cited from earlier work
[1] = target: neurotensin receptor Subtype-1 (NTR1) (Homo sapiens, UniProt P30989); settings: 100 mM NaCl present or absent; 2 nM Bodipy-TMR-neurotensin 2-13
Protocol: (§1) For the binding assays, each individual array was incubated with 10 μl of a solution containing labeled ligand(s) at a particular concentration in the absence and presence of varying amounts (0-1000 nM) of unlabeled compounds. The binding buffer used for all experiments was Tris-HCl (50 mM, pH 7.4) containing 10 mM MgCl2, 0.1% BSA and 1 mM EDTA.
(§2) After executing the binding assays, the microarrays are washed and dried, and then examined using Genepix scanner 4000 (Axon Instruments, Union City, Calif.). Using Genepix software, resulting data is analyzed. Each data point in the plots represents the average of at least three replicate micospots. Using non-linear regression analysis (Graphpad PRISM, Graphpad Software Inc., San Diego, Calif.), one can estimate Kd and IC50.

[2] = target: T1, muscarinic receptor subtype 1 (M1) (Homo sapiens, UniProt P11229); assay: multiplexed competitive binding assay on GPCR microarray; settings: 1 uM unlabeled telenzepine; cocktail of labeled ligands incl. 2 nM Cy3B-telenezepine
T1 sequence (P11229 1-460): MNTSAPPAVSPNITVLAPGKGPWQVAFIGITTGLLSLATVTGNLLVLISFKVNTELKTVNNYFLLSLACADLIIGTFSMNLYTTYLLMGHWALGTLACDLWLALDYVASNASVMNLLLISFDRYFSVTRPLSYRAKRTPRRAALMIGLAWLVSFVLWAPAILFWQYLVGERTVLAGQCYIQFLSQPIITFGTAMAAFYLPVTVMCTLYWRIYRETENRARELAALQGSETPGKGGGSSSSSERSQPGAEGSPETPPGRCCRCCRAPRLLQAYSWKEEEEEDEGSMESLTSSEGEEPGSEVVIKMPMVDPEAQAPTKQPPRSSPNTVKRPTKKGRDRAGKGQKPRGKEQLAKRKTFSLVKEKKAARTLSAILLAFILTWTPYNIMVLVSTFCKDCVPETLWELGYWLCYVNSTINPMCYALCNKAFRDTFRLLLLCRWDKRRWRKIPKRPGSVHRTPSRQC
Protocol: FIGS. 2C & 2D, respectively, are graphs of the percent of total detected signal in the presence and absence of 1 μM telenzepine.
A single buffered binding solution composition, according to the invention—including for example, 50 mM Tris-HCl, pH 7.4, 10 mM MgCl2, 1 mM EDTA, 0.1 wt. % BSA—is used for multiplexed competitive binding assay. […] Telenzepine is an antagonist for M1 receptor alone.
as §1, §2

NTR1, sequence (P20789 whole entry): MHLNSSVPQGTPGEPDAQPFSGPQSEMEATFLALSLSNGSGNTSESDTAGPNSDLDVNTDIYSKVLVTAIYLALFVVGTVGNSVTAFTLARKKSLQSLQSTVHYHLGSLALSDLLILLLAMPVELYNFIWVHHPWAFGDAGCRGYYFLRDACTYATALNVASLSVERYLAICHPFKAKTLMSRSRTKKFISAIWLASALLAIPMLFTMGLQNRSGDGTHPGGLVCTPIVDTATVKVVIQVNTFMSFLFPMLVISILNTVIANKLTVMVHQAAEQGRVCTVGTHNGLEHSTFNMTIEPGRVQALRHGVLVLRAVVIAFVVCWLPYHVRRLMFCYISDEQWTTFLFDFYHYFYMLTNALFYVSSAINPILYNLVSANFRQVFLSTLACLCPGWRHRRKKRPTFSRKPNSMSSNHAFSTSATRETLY
neurotensin receptor Subtype-1 (NTR1), sequence (P30989 whole entry): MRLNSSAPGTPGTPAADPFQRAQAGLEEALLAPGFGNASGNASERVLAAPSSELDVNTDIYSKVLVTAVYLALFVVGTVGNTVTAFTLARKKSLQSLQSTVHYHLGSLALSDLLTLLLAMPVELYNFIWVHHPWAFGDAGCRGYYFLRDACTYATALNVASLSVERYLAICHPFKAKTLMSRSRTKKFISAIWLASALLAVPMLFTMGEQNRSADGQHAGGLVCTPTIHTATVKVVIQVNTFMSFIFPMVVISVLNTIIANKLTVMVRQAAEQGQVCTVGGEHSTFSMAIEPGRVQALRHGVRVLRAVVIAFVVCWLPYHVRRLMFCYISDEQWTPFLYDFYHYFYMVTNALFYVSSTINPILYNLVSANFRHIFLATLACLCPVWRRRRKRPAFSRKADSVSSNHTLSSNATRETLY

SMILES: [Na+] [sodium ions]
- IC50 (NTR1; read-out: IC50 for inhibition of binding of radio-labeled neurotensin to NTR1): 18 mM
- inhibition of binding of radio-labeled neurotensin to NTR1 (NTR1; sodium ions at a concentration as low as about 20 mM): at least 50%

SMILES: [Cl-].[Na+] [NaCl]
- effect on binding of BT-NT to NTR1 (total binding signal) [1]: strongly influences

- inhibition of the binding of labeled ligands to M1 receptors [2]: specific and selective inhibition
SMILES: Cc1scc2c1N(C(=O)CN1CCN(C)CC1)c1ccccc1NC2=O [telenzepine]
